Test results reported in patent publication US7671203B2, “Method and system for separation and purification of at least one narcotic alkaloid using reverse phase preparative chromatography” (Mallinckrodt Inc., priority 2003, dated 2010).

Assay: Solubility of codeine in water

COc1ccc2c3c1O[C@H]1[C@@H](O)C=C[C@H]4[C@@H](C2)N(C)CC[C@@]341 [Codeine, codeine]
concentration above which codeine is not fully soluble in water: ≤ 30 grams/liter
